Assay results as given in patent US7288653B2, “Inhibitors of proton-gated cation channels and their use in the treatment of ischaemic disorders” (PainCeptor Pharma Corporation, priority 1999, dated 2007).

Tested on: proton-gated cation channels in cultured mouse cortical neurons
Assay: Whole cell patch clamp of proton-gated currents in cultured mouse cortical neurons
Assay type: cell-based
Protocol: The following experiments were performed in voltage-or current clamp using conventional whole cell patch clamp methods [Hamill O P, Marty A, Neher E, Sakmann B and Sigworth F J: Improved patch-clamp techniques for high-resolution current recording from cells and cell-free membrane patches; Pflügers Arch. 1981 39 85-100]. The following salt solutions were used (where nothing else stated, the chemicals are available from Sigma): NaCl (140 mM), KCl (4 mM), CaCl2 (2 mM), MgCl2 (1 mM), Sucrose (30 mM; Available from Fluka Chemie, Buchs, Switzerland), HEPES (10 mM, pH 6-7.4). Solutions with pH<6 were buffered with MES (10 mM) in stead of HEPES. Solutions with no added Ca^2+ contained 3 mM MgCl2. Solutions with no added Na^+ contained 140 mM N-methyl-D-glucamine. For voltage clamp experiments, the extracellular solutions were added Tetrodotoxin (0.0003 mM; Available from Alomone Labs, Jerusalem, Israel) and Bicuculline Methiodide (0.005 mM; Available from RBI, MA, USA).
Intracellular solution for voltage clamp experiments: CsCl (120 mM), CsF (20 mM), MgCl2 (2 mM), EGTA (10 mM), HEPES (10 mM; pH=7.2). […]
For voltage clamp experiments, the cells were held at a holding voltage of −60 mV and at the start of each experiment the current was continuously measured for at least 30 sec. to ensure a stable leak current. […]

IC50 (cultured mouse cortical neuron, voltage clamp −60 mV, saline at pH 6, Hill equation fit, read-out: IC50, inhibition of proton-gated currents): 6.2 µM
Structure (SMILES): N=C(N)NC(=O)c1nc(Cl)c(N)nc1N [Amiloride, N-amidino-3,5-diamino-6-chloropyrazine-2-carboxamide]
Effect on proton-gated currents (100 μM Amiloride, saline at pH 6, voltage clamp −60 mV): inhibited
